Test results published in paper PMC5341752, “New bipyridine gold(III) dithiocarbamate-containing complexes exerted a potent anticancer activity against cisplatin-resistant cancer cells independent of p53 status” (Oncotarget, 2016).

Experiments:
MCF-7 cells = experiment: Growth inhibition, MTT assay, MCF-7 cells; type: cell-based, human; details: for IC50: mean ± SEM
Method: (§1) PC3 and MCF-7 cells (2.5 × 10^3), A2780, A2780cis (4.0 × 10^3), A2780CP-16 and lung cancer cells (H460, A549, H226, H838, H157, H1975, H2122, SKLU1 and H1299) were seeded in 96-well flat-bottomed microplates (100 μL) and incubated for 24 h (to allow cell adhesion) before drug testing. The medium was then removed and replaced with fresh medium containing the gold(III) complexes (compound 1–9) to be tested at increasing concentrations (from 0.01 to 100 μM) at 37°C for 72 h. Each treatment was performed in triplicate. Cell proliferation was assayed using the MTT assay. Alternatively, L-540 cells (2.0 × 10^5/mL) were seeded in 96-well plates and treated as previously described. After treatment, cell proliferation was evaluated by the MTS assay (Promega). IC50 (i.e., the half maximal inhibitory concentration representing the concentration of a substance required for 50% in vitro inhibition) IC75 and IC90 values (Supplementary Table S1) were calculated using the CalcuSyn software (Biosoft, Ferguson, MO, USA). Dependence of activity on p53 was assessed in A2780 cells following p53 knockdown by CRISPR [48].

PC3 cells = experiment: Growth inhibition, MTT assay, PC3 cells; type: cell-based, human; details: 72 h exposure; for IC50: mean ± SEM
Method: as §1

L-540 cells = experiment: Growth inhibition, MTS assay, L-540 cells; type: cell-based, human; details: 72 h exposure; for IC50: mean ± SEM
Method: as §1

A2780 cells = experiment: Growth inhibition, MTT assay, A2780 cells; type: cell-based, human; details: 72 h exposure; for IC50: mean ± SEM
Method: as §1

A2780cis cells = experiment: Growth inhibition, MTT assay, cisplatin-resistant A2780cis cells; type: cell-based, human; details: for IC50: mean ± SEM; for Fold resistance A2780cis/A2780 ratio: ratio A2780cis IC50/A2780 IC50
Method: as §1

2780CP cells = system: 2780CP cells; set-up: method as in PMID 10643661; details: 2780CP-16 versus A2780; cited from earlier work
[1] = system: NSCLC cell lines (H460, A549, H226, H838, H157, H1975, H2122, SKLU1, H1299); experiment: Cytotoxicity in a panel of NSCLC cell lines, MTT assay; type: cell-based; details: all NSCLC cell lines
Method: as §1

[2] = system: A2780 CRISPR Control cells (WT-p53); experiment: MTT assay in A2780 clone transfected with CRISPR control plasmid; type: cell-based, human; details: mean ± SEM
Method: as §1

[3] = system: A2780 CRISPR p53 KO cells; experiment: MTT assay in A2780 clone with p53 knocked out by CRISPR/Cas9; type: cell-based, human; details: mean ± SEM
Method: as §1

[4] = Stability by UV-Vis spectra in DMSO over 24 hours at 37°C; type: physicochemical; details: DMSO solution
Method: Electronic spectra were recorded on each complex freshly prepared in DMSO solution at room temperature. Then, their electronic spectra were monitored over 24 hours at 37°C. The resulting UV-Vis absorption spectra of compound 1, 2 and 3 are shown in Supplementary Figure S4A–S4C.

[5] = system: human Mesenchymal stromal cells (MSCs); experiment: Proliferation of normal Mesenchymal stromal cells, MTT assay; type: cell-based; details: 72 h
Method: Bone Marrow (BM) derived human Mesenchymal Stromal Cells (MSCs) were from Lonza (Lonza, Verviers, Belgium). MSCs were maintained in MSGM bullet kit (Lonza) and experiments were performed in DMEM medium (Cambrex Bio Science, Milano, Italy) supplemented with 10% FCS. To evaluate effects of compound 1, MSCs (5.0 × 10^3) were seeded in 96-well flat-bottomed microplates (100 μL) and incubated for 24 h (to allow cell adhesion) before drug testing. The medium was then removed and replaced with fresh medium containing compound 1 to be tested at increasing concentrations (from 0.1 to 1 μM) at 37°C for 72 h. Each treatment was performed in triplicate. Cell proliferation was assayed using the MTT assay.

[6] = system: A2780, A2780cis, MCF-7, PC3, L-540 cells; experiment: Apoptosis, Annexin V/PI double staining, flow cytometry; type: cell-based, human; details: IC75, 72 h
Method: (§2) PC3 (2.5 × 10^4), MCF-7 (5.0 × 10^4), A2780 and A2780cis (5.0 × 10^4), and L-540 cells (2.0 × 10^5/mL) were incubated in six-well plates with compound 1 (IC75) (Figure 1) for 72 h. Annexin-V binding (Becton-Dickinson [BD] Pharmingen, San Jose, CA) together with propidium iodide (PI) staining was detected in tumor cells by flow cytometry, as described. Caspase 3 and 9 activation was evaluated using the fluorochrome inhibitors of caspases (FLICA) Caspa-TagTM caspase-3/7 (FAM-DEVD-FMK) and caspase 9 (FAM-LETD) (Chemicon International, Milan, Italy). Briefly, cells were treated with compound 1 (IC75), then harvested, washed and resuspended in warmed complete medium supplemented with FLICA for 1 h and then immediately analyzed by flow cytometry. DNA fragmentation was assessed using the Apo-Direct kit (Becton-Dickinson Pharmigen, CA, USA) according to manufacturer's instructions. […] Red fluorescence was immediately analyzed by flow cytometry. Viable cells were identified according to their forward and right-angle scattering, electronically gated and analyzed on a FACScan flow cytometer (BD), using CellQuest software (BD). […] After 72 h, ROS formation and viable cells number were evaluated by flow cytometry and trypan blue dye exclusion assay, respectively. […]

[7] = system: A2780, A2780cis, MCF-7, PC3, L-540 cells; experiment: Caspase 3 activation, FLICA reagent, flow cytometry; type: cell-based, human; details: IC75, 0, 24 and 48 h
Method: as §2

[8] = system: A2780, A2780cis, MCF-7, PC3, L-540 cells; experiment: DNA fragmentation, Apo-Direct, flow cytometry; type: cell-based, human; details: IC75, 72 h
Method: as §2

tumor cells [9] = experiment: Mitochondrial membrane permeabilization, CMXRos, flow cytometry; type: cell-based, human; details: IC75, 24 h
Method: as §2

tumor cells [10] = experiment: Cytochrome-c release, flow cytometry; type: cell-based, human; details: IC75, 24 h
tumor cells [11] = experiment: Caspase 9 activation, FLICA reagent, flow cytometry; type: cell-based, human; details: IC75, 24 h
Method: as §2

tumor cells [12] = experiment: Mitochondrial ROS, MitoSox, flow cytometry; type: cell-based, human; details: IC75, 72 h
Method: as §2

tumor cells [13] = experiment: Cell cycle progression; type: cell-based; details: data not shown

## Cc1ccc2[n+](c1)[Au-]1([S]C(N(Cc3ccccc3)Cc3ccccc3)=[S+]1)[n+]1cc(C)ccc1-2.[Cl-].[Cl-] [Compound 6, [Au(5,5′-Me2BPY)(DBTC)]Cl2]
MCF-7 cells; 72 h exposure, MTT
  IC50: 18000 ± 1620 nM
PC3 cells
  IC50: 11600 ± 1040 nM
L-540 cells
  IC50: 6500 ± 60 nM
A2780 cells
  IC50: 6350 ± 60 nM
A2780cis cells; 72 h exposure, MTT
  IC50: 15700 ± 1410 nM
A2780cis cells
  Fold resistance A2780cis/A2780 ratio: 2.47

## cis-[Pt(NH3)2Cl2] [Cisplatin]
MCF-7 cells; 72 h exposure, MTT
  IC50: 22200 ± 200 nM
PC3 cells
  IC50: 3300 ± 300 nM
L-540 cells
  IC50: 2500 ± 100 nM
A2780 cells
  IC50: 1500 ± 100 nM
A2780cis cells; 72 h exposure, MTT
  IC50: 10400 ± 900 nM
A2780cis cells
  Fold resistance A2780cis/A2780 ratio: 6.93
A2780cis cells; listed as cisplatin
  Fold resistance A2780cis/A2780 ratio: about 7
2780CP cells
  fold cisplatin resistance of 2780CP cells: 20 fold

## Cc1cccc2[n+]1[Au-]1([S]C(N(Cc3ccccc3)Cc3ccccc3)=[S+]1)[n+]1c(C)cccc1-2.[Cl-].[Cl-] [Compound 9, [Au(6,6′-Me2BPY)(DBTC)]Cl2]
MCF-7 cells; 72 h exposure, MTT
  IC50: 31000 ± 2790 nM
PC3 cells
  IC50: 11500 ± 1030 nM
L-540 cells
  IC50: 35800 ± 3220 nM
A2780 cells
  IC50: 6700 ± 600 nM
A2780cis cells; 72 h exposure, MTT
  IC50: 16000 ± 1440 nM
A2780cis cells
  Fold resistance A2780cis/A2780 ratio: 2.39

## Cc1ccc2[n+](c1)[Au-]1([S]C(N(C)C)=[S+]1)[n+]1cc(C)ccc1-2.[Cl-].[Cl-] [Compound 4, [Au(5,5′-Me2BPY)(DMTC)]Cl2]
MCF-7 cells; 72 h exposure, MTT
  IC50: 280 ± 20 nM
PC3 cells
  IC50: 590 ± 50 nM
L-540 cells
  IC50: 2700 ± 220 nM
A2780 cells
  IC50: 280 ± 30 nM
A2780cis cells; 72 h exposure, MTT
  IC50: 170 ± 10 nM
[1]
  fold greater potency than compounds 3, 6 and 9: at least 10 fold
[2]
  IC50: 87 ± 3 nM
[3]
  IC50: 83 ± 3 nM

## CCN(CC)C(=S)[S-].[Au+3].[Cl-].[Cl-].c1ccc(-c2ccccn2)nc1 [Compound 2, [Au(BPY)(DETC)]Cl2]
MCF-7 cells; 72 h exposure, MTT
  IC50: 270 ± 20 nM
PC3 cells
  IC50: 700 ± 60 nM
L-540 cells
  IC50: 2800 ± 250 nM
A2780 cells
  IC50: 240 ± 20 nM
A2780cis cells; 72 h exposure, MTT
  IC50: 180 ± 10 nM
[4]
  stability by UV spectra: confirm the stability under physiological temperature

## CN(C)C1=[S+][Au-]2([S]1)[n+]1ccccc1-c1cccc[n+]12.[Cl-].[Cl-] [Compound 1, [Au(BPY)(DMTC)]Cl2]
MCF-7 cells; 72 h exposure, MTT
  IC75 MCF-7: 510 ± 50 nM
  IC90: 740 ± 80 nM
  IC50: 270 ± 20 nM
MCF-7 cells; MCF-7 cells
  fold more active than cisplatin in inhibiting cell proliferation: ~80 fold
PC3 cells
  IC75 PC3: 730 ± 70 nM
  IC90: 910 ± 110 nM
  IC50: 420 ± 40 nM
L-540 cells
  IC75 L-540: 3500 ± 320 nM
  IC90: 4200 ± 390 nM
  IC50: 2680 ± 240 nM
A2780 cells
  IC75 A2780: 450 ± 40 nM
  IC90: 600 ± 50 nM
  IC50: 180 ± 20 nM
A2780cis cells; 72 h exposure, MTT
  IC75 A2780cis: 430 ± 40 nM
  IC90: 560 ± 60 nM
  IC50: 170 ± 10 nM
A2780cis cells; A2780cis cells
  fold more active than cisplatin in inhibiting cell proliferation: about 60 fold
[5]
  IC50: 960 nM
[4]
  stability by UV spectra: confirm the stability under physiological temperature
[6]
  apoptosis (Annexin-V/PI): induced apoptosis in the cell lines tested
[7]
  caspase 3 activation: induced a time-dependent activation of caspase 3
[8]
  DNA fragmentation (Apo-Direct): Apoptosis induction was confirmed by DNA fragmentation
Tumor cells [9]
  mitochondrial membrane permeabilization: promoted mitochondrial membrane permeabilization
Tumor cells [10]
  cytochrome-c release from the mitochondria: cytochrome-c (Cyt-c) release
Tumor cells [11]
  caspase 9 activation: induced activation of caspase 9
Tumor cells [12]
  mitochondrial ROS levels: increased mitochondrial ROS levels
Tumor cells [13]
  cell cycle progression: only slightly affected

## S=C([S-])N(Cc1ccccc1)Cc1ccccc1.[Au+3].[Cl-].[Cl-].c1ccc(-c2ccccn2)nc1 [Compound 3, [Au(BPY)(DBTC)]Cl2]
MCF-7 cells; 72 h exposure, MTT
  IC50: 23000 ± 2070 nM
PC3 cells
  IC50: 11200 ± 1000 nM
L-540 cells
  IC50: 12000 ± 1080 nM
A2780 cells
  IC50: 4660 ± 130 nM
A2780cis cells; 72 h exposure, MTT
  IC50: 14300 ± 1120 nM
A2780cis cells
  Fold resistance A2780cis/A2780 ratio: 3.07
[2]
  IC50: 870 ± 110 nM
[3]
  IC50: 1130 ± 390 nM
[4]
  stability by UV spectra: confirm the stability under physiological temperature

## CCN(CC)C1=[S+][Au-]2([S]1)[n+]1c(C)cccc1-c1cccc(C)[n+]12.Cl.Cl [Compound 8, [Au(6,6′-Me2BPY)(DETC)]Cl2]
MCF-7 cells; 72 h exposure, MTT
  IC50: 470 ± 40 nM
PC3 cells
  IC50: 1600 ± 140 nM
L-540 cells
  IC50: 6200 ± 560 nM
A2780 cells
  IC50: 730 ± 60 nM
A2780cis cells; 72 h exposure, MTT
  IC50: 450 ± 30 nM

## CCN(CC)C1=[S+][Au-]2([S]1)[n+]1cc(C)ccc1-c1ccc(C)c[n+]12.Cl.Cl [Compound 5, [Au(5,5′-Me2BPY)(DETC)]Cl2]
MCF-7 cells; 72 h exposure, MTT
  IC50: 290 ± 30 nM
PC3 cells
  IC50: 860 ± 80 nM
L-540 cells
  IC50: 2900 ± 260 nM
A2780 cells
  IC50: 590 ± 50 nM
A2780cis cells; 72 h exposure, MTT
  IC50: 230 ± 20 nM

## Cc1cccc2[n+]1[Au-]1([S]C(N(C)C)=[S+]1)[n+]1c(C)cccc1-2.[Cl-].[Cl-] [Compound 7, [Au(6,6′-Me2BPY)(DMTC)]Cl2]
MCF-7 cells; 72 h exposure, MTT
  IC50: 350 ± 30 nM
PC3 cells
  IC50: 770 ± 70 nM
L-540 cells
  IC50: 3600 ± 320 nM
A2780 cells
  IC50: 270 ± 20 nM
A2780cis cells; 72 h exposure, MTT
  IC50: 230 ± 20 nM
[1]
  fold greater potency than compounds 3, 6 and 9: at least 10 fold
